Results: US8946262B2, “Methods of preventing and treating gastrointestinal dysfunction” (Adolor Corporation, priority 2003, dated 2015)

What was measured:
[1] = Plasma exposure (AUC (τ)) of I.V. alvimopan given for 4 days with loperamide; format: in vivo, healthy subjects; settings: group mean
Protocol: Subjects were randomly assigned to receive one of the following five treatments: • Group 1: […] Study Assessments Serial blood samples were collected for the determination of concentrations of alvimopan and its amide hydrolysis metabolite in plasma. The appropriate dose was drawn into the delivery system, normal saline was added to bring the total volume to 6 mL, and the contents will be mixed thoroughly. Placebo for alvimopan I.V. was 6 mL of normal saline. […] The first eight subjects in each treatment group followed a full sampling schedule and the last four subjects followed a sparse sampling schedule. For the first eight subjects (full sampling schedule), blood samples was collected just prior to administration of alvimopan I.V. on Days 1 through 4 (four samples); and at 0.5, 1, 1.5, 2, 5, 10, 20, 30, and 60 minutes and at 2, 4, 6, 8, 10, 12, 16, 24, 48, 72, 96, 120, 144, and 168 hours after the end of the infusion of alvimopan I.V. on Day 4. This is a total of 27 samples per subject (135 mL per subject). For the last four subjects in each treatment group (sparse sampling schedule), blood was collected prior to administration of alvimopan I.V. on Days 1 through 4 (four samples), and immediately following the last infusion on Day 4. Subjects were randomized to have one sample collected during each of the following intervals, relative to the end of the infusion on Day 4: […]

Solubility in water = format: physicochemical; settings: except at low or high pH conditions
GI transit = GI transit score (GITS) by transit of radio-opaque markers (SITZMARKS) in subjects given loperamide; format: in vivo, healthy subjects; settings: for GI Score: x-ray Day 4, group mean, normal 255.56
Protocol: Subjects were randomly assigned to receive one of the following five treatments: • Group 1: […] Study Assessments Subjects were assessed for their pain at the I.V. infusion site using a categorical four-point verbal scale (i.e., no discomfort/pain, mild discomfort/pain, moderate pain, or severe pain). The Investigator also assessed certain characteristics (e.g., erythema) of the I.V. site (i.e., none, mild, moderate, or severe). Abdominal x-rays and x-rays of stool samples were performed to determine the location of the […] markers. Oral […] capsules were administered on Days 1, 2, and 3 at the same time that study medication is administered each day.

[2] = molecular target: μ opioid receptors in the GI tract (Homo sapiens, UniProt P35372); assay: Free alvimopan plasma concentration after a 12 mg oral dose before surgery, compared with Ki; format: in vivo, patients
Protocol: A Practical Introduction to Structure, Mechanism, and Data Analysis, 2nd Edition, (New York: Wiley-VCH, 2000), page 88, the disclosure of which is incorporated herein by reference.
Twelve milligrams of alvimopan (two 6 mg capsules) was administered orally to patients about 120 minutes prior to surgery. The free alvimopan plasma concentration was measured for about 24 hours.

[3] = Group 3 (alvimopan 1 mg I.V. b.i.d. + loperamide 2 mg p.o. q.i.d.)
[4] = Group 4 (alvimopan 0.45 mg I.V. b.i.d. + loperamide 2 mg p.o. q.i.d.)
[5] = Group 5 (alvimopan 0.1 mg I.V. b.i.d. + loperamide 2 mg p.o. q.i.d.)

Sequence of μ opioid receptors in the GI tract (P35372 whole entry): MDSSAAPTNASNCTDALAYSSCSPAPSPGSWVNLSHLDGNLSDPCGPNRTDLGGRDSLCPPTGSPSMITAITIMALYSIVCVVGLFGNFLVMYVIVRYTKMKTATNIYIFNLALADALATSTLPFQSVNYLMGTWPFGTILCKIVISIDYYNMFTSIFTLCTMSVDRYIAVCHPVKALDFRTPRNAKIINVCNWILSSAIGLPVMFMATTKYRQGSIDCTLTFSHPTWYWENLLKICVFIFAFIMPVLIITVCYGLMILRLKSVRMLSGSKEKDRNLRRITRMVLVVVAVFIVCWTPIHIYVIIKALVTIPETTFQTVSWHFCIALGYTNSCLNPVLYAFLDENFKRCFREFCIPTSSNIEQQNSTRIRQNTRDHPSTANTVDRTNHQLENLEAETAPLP

Row | SMILES | AUC (τ) of Alvimopan [1, 3] [ng·mL/h] | AUC (τ) of Alvimopan [1, 4] [ng·mL/h] | AUC (τ) of Alvimopan [1, 5] [ng·mL/h] | solubility in water (Solubility in water) | GI Score (GI transit; [3]) | GI score compared with Group 2 (loperamide + placebo) and normal (Group 1) (GI transit; Group 4) | GI Score (GI transit; [4]) | GI score compared with Group 2 (loperamide + placebo) and normal (Group 1) (GI transit; Group 5) | GI Score (GI transit; [5]) | free plasma concentrations versus saturation of μ opioid receptors in the GI tract ([2]; single 12 mg oral dose (two 6 mg capsules), about 120 minutes prior to surgery, FIG. 1) | Maximum free plasma concentrations achieved relative to the Ki ([2]; single 12 mg oral dose, FIG. 1) [fold] | receptor occupancy at 12 mg ([2]; single 12 mg oral dose, read-out: estimated receptor occupancy) [%] | GI Score (GI transit; Group 2: loperamide 2 mg p.o. q.i.d. + placebo for alvimopan I.V.)
1 | C[C@H]1CN(C[C@H](Cc2ccccc2)C(=O)NCC(=O)O)CC[C@@]1(C)c1cccc(O)c1 [alvimopan, [[(2S)-2-[[(3R,4R)-4-(3-hydroxyphenyl)-3,4-dimethylpiperidin-1-yl]methyl]-3-phenylpropanoyl]amino]acetic acid dihydrate] | 4.36 | 22.06 | 49.79 | low solubility in water | 231 | statistically different from Group 2 | 274.62 | statistically different from Group 2 | 278.5 | sufficient to substantially saturate μ opioid receptors in the GI tract | 11 | > 68 | 
2 | CN(C)C(=O)C(CCN1CCC(O)(c2ccc(Cl)cc2)CC1)(c1ccccc1)c1ccccc1 [loperamide, reference compound] |  |  |  |  |  |  |  |  |  |  |  |  | 208.67
